What was measured:
Trypanosoma brucei [1] = test: Inhibition of Trypanosoma brucei GalE at 50 uM
[2] = Inhibition of Trypanosoma brucei GalE by HPAEC assay
UDP-glucose 4-epimerase = target: T1, UDP-glucose 4-epimerase (Homo sapiens, UniProt Q14376); test: Inhibition of human GalE by HPAEC assay
T1 sequence (Q14376 whole entry): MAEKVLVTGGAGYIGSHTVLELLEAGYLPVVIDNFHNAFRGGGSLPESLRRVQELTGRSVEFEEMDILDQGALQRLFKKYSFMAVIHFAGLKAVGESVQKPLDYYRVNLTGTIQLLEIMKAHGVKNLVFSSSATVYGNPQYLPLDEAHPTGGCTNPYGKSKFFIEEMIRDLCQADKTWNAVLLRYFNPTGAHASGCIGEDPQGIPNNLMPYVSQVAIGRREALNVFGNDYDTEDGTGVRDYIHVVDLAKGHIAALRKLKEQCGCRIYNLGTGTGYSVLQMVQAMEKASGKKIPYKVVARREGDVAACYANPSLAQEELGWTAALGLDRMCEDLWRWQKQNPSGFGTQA

CHO-K1 = test: Cytotoxicity against CHO-K1 cells by Alamar blue assay; type: cell-based; settings: Cricetulus griseus
Trypanosoma brucei [3] = test: Cytotoxicity against Trypanosoma brucei by Alamar blue assay; type: organism-based
[4] = Inhibition of Trypanosoma brucei GalE after 1 hr by HPAEC assay

Structure (SMILES) | inhibition (Trypanosoma brucei [1]) | IC50 [2] | IC50 (UDP-glucose 4-epimerase) | EC50 (CHO-K1) | EC50 (Trypanosoma brucei [3]) | IC50 [4]
CC/C(=C(/CC)c1ccc(O)cc1)c1ccc(O)cc1 [DIETHYLSTILBESTROL] | > 75% | 17 µM | 75 µM | 8.5 µM | 2.8 µM | –
O=c1c2ccccc2[se]n1-c1ccccc1 [EBSELEN] | > 75% | 0.62 µM | 0.014 µM | 6.1 µM | 4.1 µM | –
C=C(CC)C(=O)c1ccc(OCC(=O)O)c(Cl)c1Cl [ETHACRYNIC ACID] | > 75% | 3.1 µM | 14 µM | 56 µM | 3.3 µM | –
Clc1cc(Cl)c(OCC#CI)cc1Cl [HALOPROGIN] | > 75% | – | 0.5 µM | 0.6 µM | 0.3 µM | > 100 µM
O=C(NCCSSCCNC(=O)/C(Cc1ccc(O)c(Br)c1)=N/O)/C(Cc1ccc(O)c(Br)c1)=N/O [PSAMMAPLIN A] | > 75% | 15 µM | 3.6 µM | 0.9 µM | 2.6 µM | –
